Measured values from article PMC7340670, “Phase I study of TAS-115, a novel oral multi-kinase inhibitor, in patients with advanced solid tumors” (Investigational New Drugs, 2019).
“Also recorded” adds a separate entry of the source.

Tested on: patients with advanced solid tumors
Assay: Phase I study (JapicCTI-132333): safety, tolerability, DLT, MTD, RP2D
Format: in vivo
Description: This is an open-label, nonrandomized, dose-escalation study conducted at five sites in Japan. The study has three parts: a dose-escalation cohort using a traditional 3 + 3 design (part 1), a dosing schedule investigation cohort (part 2), and an expansion cohort to assess the safety at the MTD or lower doses among more patients (expansion part).
For each dose level in part 1, three to six patients were enrolled. DLTs were evaluated during the first cycle. […] The study drug was orally administered under empty stomach conditions (1 h before or 2 h after a meal) with a cup of water. […] In the expansion part, ≤MTD was investigated for exposure and safety.
All patients in parts 1 and 2 were required to be hospitalized for cycle 1 in order to observe AE. Patients continued to receive the study drug until disease progression or intolerable toxicity. […] The number of dose reductions was up to 2, and the minimum dose was 100 mg/day. […]

[1] = Part 1, 200–800 mg/day, SID (N = 21), patients (%)
[2] = Part 2 + Expansion part, 450 or 650 mg/day, 5-on/2-off (N = 61), patients (%)
[3] = part 2 and expansion part (N = 61)

## CNC(=O)c1cc2c(Oc3ccc(NC(=S)NC(=O)Cc4ccccc4)cc3F)ccnc2cc1OC [TAS-115]
650 mg/day, early expansion part
  CRPC patients with AEs requiring dose reduction: five of six
[1]
  Treatment-related adverse events: Alanine aminotransferase increased, Any Grade: 11 (52.4)
  Treatment-related adverse events: Alanine aminotransferase increased, ≥ Grade 3: 0 (0.0)
  Treatment-related adverse events: Amylase increased, Any Grade: 8 (38.1)
  Treatment-related adverse events: Amylase increased, ≥ Grade 3: 3 (14.3)
  Treatment-related adverse events: Anemia, Any Grade: 2 (9.5)
  Treatment-related adverse events: Anemia, ≥ Grade 3: 2 (9.5)
  Treatment-related adverse events: Any Events, Any Grade: 21 (100.0)
  Treatment-related adverse events: Any Events, ≥ Grade 3: 13 (61.9)
  Treatment-related adverse events: Aspartate aminotransferase increased, Any Grade: 15 (71.4)
  Treatment-related adverse events: Aspartate aminotransferase increased, ≥ Grade 3: 0 (0.0)
  Treatment-related adverse events: Decreased appetite, Any Grade: 7 (33.3)
  Treatment-related adverse events: Decreased appetite, ≥ Grade 3: 1 (4.8)
  Treatment-related adverse events: Diarrhea, Any Grade: 3 (14.3)
  Treatment-related adverse events: Diarrhea, ≥ Grade 3: 0 (0.0)
  Treatment-related adverse events: Edema, Any Grade: 6 (28.6)
  Treatment-related adverse events: Edema, ≥ Grade 3: 0 (0.0)
  Treatment-related adverse events: Face edema, Any Grade: 6 (28.6)
  Treatment-related adverse events: Face edema, ≥ Grade 3: 0 (0.0)
  Treatment-related adverse events: Fatigue, Any Grade: 10 (47.6)
  Treatment-related adverse events: Fatigue, ≥ Grade 3: 0 (0.0)
  Treatment-related adverse events: Hypophosphatemia, Any Grade: 6 (28.6)
  Treatment-related adverse events: Hypophosphatemia, ≥ Grade 3: 5 (23.8)
  Treatment-related adverse events: Leukocytopenia, Any Grade: 8 (38.1)
  Treatment-related adverse events: Leukocytopenia, ≥ Grade 3: 2 (9.5)
  Treatment-related adverse events: Lipase increased, Any Grade: 6 (28.6)
  Treatment-related adverse events: Lipase increased, ≥ Grade 3: 5 (23.8)
  Treatment-related adverse events: Nausea, Any Grade: 7 (33.3)
  Treatment-related adverse events: Nausea, ≥ Grade 3: 0 (0.0)
  Treatment-related adverse events: Neutropenia, Any Grade: 8 (38.1)
  Treatment-related adverse events: Neutropenia, ≥ Grade 3: 3 (14.3)
  Treatment-related adverse events: Rash, Any Grade: 12 (57.1)
  Treatment-related adverse events: Rash, ≥ Grade 3: 2 (9.5)
  Treatment-related adverse events: Thrombocytopenia, Any Grade: 8 (38.1)
  Treatment-related adverse events: Thrombocytopenia, ≥ Grade 3: 1 (4.8)
  Treatment-related adverse events: Vomiting, Any Grade: 4 (19.0)
  Treatment-related adverse events: Vomiting, ≥ Grade 3: 0 (0.0)
[2]
  Treatment-related adverse events: Alanine aminotransferase increased, Any Grade: 23 (37.7)
  Treatment-related adverse events: Alanine aminotransferase increased, ≥ Grade 3: 1 (1.6)
  Treatment-related adverse events: Amylase increased, Any Grade: 10 (16.4)
  Treatment-related adverse events: Amylase increased, ≥ Grade 3: 1 (1.6)
  Treatment-related adverse events: Anemia, Any Grade: 21 (34.4)
  Treatment-related adverse events: Anemia, ≥ Grade 3: 9 (14.8)
  Treatment-related adverse events: Any Events, Any Grade: 60 (98.4)
  Treatment-related adverse events: Any Events, ≥ Grade 3: 47 (77.0)
  Treatment-related adverse events: Aspartate aminotransferase increased, Any Grade: 31 (50.8)
  Treatment-related adverse events: Aspartate aminotransferase increased, ≥ Grade 3: 4 (6.6)
  Treatment-related adverse events: Decreased appetite, Any Grade: 26 (42.6)
  Treatment-related adverse events: Decreased appetite, ≥ Grade 3: 6 (9.8)
  Treatment-related adverse events: Diarrhea, Any Grade: 14 (23.0)
  Treatment-related adverse events: Diarrhea, ≥ Grade 3: 0 (0.0)
  Treatment-related adverse events: Edema, Any Grade: 10 (16.4)
  Treatment-related adverse events: Edema, ≥ Grade 3: 0 (0.0)
  Treatment-related adverse events: Face edema, Any Grade: 11 (18.0)
  Treatment-related adverse events: Face edema, ≥ Grade 3: 0 (0.0)
  Treatment-related adverse events: Fatigue, Any Grade: 27 (44.3)
  Treatment-related adverse events: Fatigue, ≥ Grade 3: 1 (1.6)
  Treatment-related adverse events: Hypophosphatemia, Any Grade: 20 (32.8)
  Treatment-related adverse events: Hypophosphatemia, ≥ Grade 3: 13 (21.3)
  Treatment-related adverse events: Leukocytopenia, Any Grade: 18 (29.5)
  Treatment-related adverse events: Leukocytopenia, ≥ Grade 3: 7 (11.5)
  Treatment-related adverse events: Lipase increased, Any Grade: 9 (14.8)
  Treatment-related adverse events: Lipase increased, ≥ Grade 3: 4 (6.6)
  Treatment-related adverse events: Nausea, Any Grade: 26 (42.6)
  Treatment-related adverse events: Nausea, ≥ Grade 3: 1 (1.6)
  Treatment-related adverse events: Neutropenia, Any Grade: 21 (34.4)
  Treatment-related adverse events: Neutropenia, ≥ Grade 3: 15 (24.6)
  Treatment-related adverse events: Rash, Any Grade: 15 (24.6)
  Treatment-related adverse events: Rash, ≥ Grade 3: 1 (1.6)
  Treatment-related adverse events: Thrombocytopenia, Any Grade: 19 (31.1)
  Treatment-related adverse events: Thrombocytopenia, ≥ Grade 3: 9 (14.8)
  Treatment-related adverse events: Vomiting, Any Grade: 19 (31.1)
  Treatment-related adverse events: Vomiting, ≥ Grade 3: 1 (1.6)
SID, 5-on/2-off for 21 days per cycle, estimated
  recommended phase II dose (RP2D): 650 mg
Any study part, during treatment or within 28 days of the last dose
  treatment-related death: No treatment-related death was observed
Cohorts 650 mg and 800 mg in part 1
  patients with TRAEs leading to dose interruption: All the patients
Expansion part
  Serious AEs: thirty one patients
  Serious TRAEs: decreased appetite (three patients), nausea (two patients), interstitial lung disease, rash, enterocolitis, fatigue, thrombocytopenia, and pyrexia (one patient each)
Expansion part (650 mg), not considered related to TAS-115
  AEs resulted in death: hepatic failure, disease progression and respiratory failure occurred in one patient each
Part 1
  Serious AEs: seven patients
  Serious TRAEs: tumor hemorrhage and decreased appetite (one patient, 650 mg each), thrombocytopenia (one patient, 800 mg)
  TRAEs that led to treatment discontinuation: rash (one patient, 800 mg)
Part 1 (N = 21)
  Grade ≥3 TRAEs: 13 patients
Part 1, 200 mg SID (N=3)
  Treatment-related adverse events: Any Events, Total: 3 (100.0) N (%)
  Treatment-related adverse events: Any Events, ≥ Grade 3: 1 (33.3) N (%)
  Treatment-related adverse events: Investigations, Total: 2 (66.7) N (%)
  Treatment-related adverse events: Investigations, ≥ Grade 3: 1 (33.3) N (%)
Part 1, 300 mg SID (N=3)
  Treatment-related adverse events: Any Events, Total: 3 (100.0) N (%)
  Treatment-related adverse events: Any Events, ≥ Grade 3: 2 (66.7) N (%)
  Treatment-related adverse events: Investigations, Total: 2 (66.7) N (%)
  Treatment-related adverse events: Investigations, ≥ Grade 3: 2 (66.7) N (%)
Part 1, 450 mg SID (N=3)
  Treatment-related adverse events: Any Events, Total: 3 (100.0) N (%)
  Treatment-related adverse events: Any Events, ≥ Grade 3: 2 (66.7) N (%)
  Treatment-related adverse events: Investigations, Total: 3 (100.0) N (%)
  Treatment-related adverse events: Investigations, ≥ Grade 3: 2 (66.7) N (%)
Part 1, 650 mg SID
  treatment interruption during cycle 1: all patients who received 650 mg SID required treatment interruption; also recorded: all patients who received 650 mg SID had treatment interruption
Part 1, 650 mg SID (N=6)
  Treatment-related adverse events: Any Events, Total: 6 (100.0) N (%)
  Treatment-related adverse events: Any Events, ≥ Grade 3: 5 (83.3) N (%)
  Treatment-related adverse events: Investigations, Total: 6 (100.0) N (%)
  Treatment-related adverse events: Investigations, ≥ Grade 3: 3 (50.0) N (%)
Part 1, 800 mg SID (N=6)
  Treatment-related adverse events: Any Events, Total: 6 (100.0) N (%)
  Treatment-related adverse events: Any Events, ≥ Grade 3: 3 (50.0) N (%)
  Treatment-related adverse events: Investigations, Total: 4 (66.7) N (%)
  Treatment-related adverse events: Investigations, ≥ Grade 3: 1 (16.7) N (%)
Part 1, 200–800 mg SID
  dose dependence of TRAEs: no dose-dependent increase in the incidence and grade of TRAEs was observed
Part 1, 200–800 mg SID, 21 patients
  DLTs overall: Three dose-limiting toxicities; also recorded: three DLTs
Part 1, SID, 21 days per cycle, granule formulation
  maximum tolerated dose (MTD): 650 mg
Part 1, cycle 1, N = 6
  DLTs at 650 mg SID: grade 3 rash in one patient
  DLTs at 800 mg SID: grade 3 thrombocytopenia with bleeding and grade 3 rash each in one patient
Part 2
  Serious AEs: two patients
  Serious TRAEs: peritonitis (one patient)
Part 2, 650 mg SID 5-on/2-off
  treatment interruption in cycle 1: no patients required treatment interruption
Part 2, cycle 1, six patients
  DLTs at 650 mg SID 5-on/2-off: No DLTs were observed; also recorded: no DLTs were reported
Part 2 and expansion part
  TRAEs that led to treatment discontinuation: rash (two patients, 650 mg), pyrexia, peritonitis and neutropenia (one patient each, 650 mg)
[3]
  TRAE anemia, any grade: 34.4%
  TRAE decreased appetite, any grade: 42.6%
  TRAE fatigue, any grade: 44.3%
  TRAE hypophosphatemia, any grade: 32.8%
  TRAE increased ALT, any grade: 37.7%
  TRAE increased AST, any grade: 50.8%
  TRAE nausea, any grade: 42.6%
  TRAE neutropenia, any grade: 34.4%
  TRAE thrombocytopenia, any grade: 31.1%
  TRAE vomiting, any grade: 31.1%
  grade ≥3 TRAE anemia: 14.8%
  grade ≥3 TRAE hypophosphatemia: 21.3%
  grade ≥3 TRAE leukocytopenia: 11.5%
  grade ≥3 TRAE neutropenia: 24.6%
  grade ≥3 TRAE thrombocytopenia: 14.8%
Part 2 and the expansion part
  frequency of TRAEs leading to dose interruption: approximately 77%
Patients with advanced solid tumors, up to 650 mg 5-on/2-off
  tolerability: generally well tolerated
